Test results from patent US5489575A, “Polypeptides and their use” (Boman; Hans G., priority 1991, dated 1996).
No end group written: not given here.

Assays:
Assay type in all cases: cell-based
Bacillus subtilis Bs11 = test: Inhibition zone assay of PR-peptide on different bacteria; details: strain Bs11
Method: (§1) The antibacterial activity of the polypeptide of this invention was determined by inhibition zone assay as described by Hultmark et al. (Hultmark, D., Engstrom, A., Anderson, K., Steiner, H., Bennich, H. and Boman, H. G. (1983). Insect immunity. Attacins, a family of antibacterial proteins from Hyalophora cecropia. EMBO J. 2, 571-576).
(§2) Log-phase bacteria were grown to a density of 100 units on a Klett-summerson photoelectric colorimeter. They were diluted 50 times with LB medium and 50 μl of the bacteria suspension was mixed with 6 ml of 1.0% agarose in LB medium (w/v) and poured on the petri dishes (Falcon 1001 Optilux) with inner diameter 8.65 cm. For E. coli this procedure will give about 2×10^5 bacteria per plate.
(§3) The plates were left for 1 hour at room temperature, and holes with 3 mm diameter were made on the solidified agarose. 100 μl of fractions were dried in a speedvac and dissolved in 10 μl H2 O, of which 3 μl was applied to the holes. After 30 min diffusion time the plates were incubated at 30° C. overnight. The diameter of the inhibition zones were measured and the relative unit activity was calculated from a standard curve which was constructed on varying amount of Cecropin A versus activity. One microgram of Cecropin A corresponds to 1000 units of activity.
(§4) The maximum concentration of PR-peptide was 2,5 mM and 3 μl was applied to each well in thin agarose plates seeded with test bacterium. LV values are obtained from a dilution serie and is the lowest concentration giving killing (Muirmark, D., Engstrem, A., Anderson, K., Steiner, H., Bennich, H. and Boman, H. G. (1983))

[1] = system: Escherichia coli Bd2221/75; test: as above; details: strain Bd2221/75
Method: as §1, §2, §3, §4

Escherichia coli K12 D21 = test: as above; details: strain D21
Method: as §1, §2, §3, §4

[2] = system: Acinetobacter calcoaceticus Ac11; test: as above; details: strain Ac11
Method: as §1, §2, §3, §4

Bacillus megaterium Bm11 = test: as above; details: strain Bm11
Method: as §1, §2, §3, §4

Streptococcus pyrogenes = test: as above
Method: as §1, §2, §3, §4

[3] = system: Staphylococcus aureus Cowan 1; test: as above; details: strain Cowan 1
Method: as §1, §2, §3, §4

[4] = system: Pseudomones aeruginose OT97; test: as above; details: strain OT97
Method: as §1, §2, §3, §4

[5] = system: Salmonella typhimurium L12; test: as above; details: strain L12
Method: as §1, §2, §3, §4

Proteus vulgaris Pv11 = test: as above; details: strain Pv11
Method: as §1, §2, §3, §4

Bacillus megaterium = test: Inhibition zone assay repeated with Bacillus megaterium (Example 4); details: times higher than in relation to E. coli
Method: as §1, §2
as §3, with “of activity. […]” for “of activity.”

[6] = lowest concentration giving killing, from dilution series
[7] = maximum concentration 2,5 mM, 3 μl per well, thin agarose plates

RRRPRPPYLPRPRPPPFFPPRLPPRIPPGFPPRFPPRFP [PR-peptide, bactericidal polypeptide isolated from pig small intestine]
LC value (Bacillus subtilis Bs11; [6]): 15 µM
Max zone (Bacillus subtilis Bs11; [7]): 10,3 mm
LC value [1, 6]: 0,3 μM
Max zone [1, 7]: 17,6 mm
LC value (Escherichia coli K12 D21; [6]): 0,3 μM
Max zone (Escherichia coli K12 D21; [7]): 18,3 mm
LC value [2, 6]: 3 µM
Max zone [2, 7]: 12,5 mm
LC value (Bacillus megaterium Bm11; [6]): 0,3 μM
Max zone (Bacillus megaterium Bm11; [7]): 17,4 mm
LC value (Streptococcus pyrogenes; [6]): 2 µM
Max zone (Streptococcus pyrogenes; [7]): 14,9 mm
LC value [3, 6]: 200 µM
Max zone [3, 7]: 3,7 mm
LC value [4, 6]: 200 µM
Max zone [4, 7]: 4,5 mm
LC value [5, 6]: 1 µM
Max zone [5, 7]: 15,2 mm
LC value (Proteus vulgaris Pv11; [6]): 300 µM
Max zone (Proteus vulgaris Pv11; [7]): 3,5 mm
average activity against Bacillus megaterium relative to E. coli (Bacillus megaterium): about 3 times
